{
  "source": "paper PMC8408562",
  "about": "“Spatially restricted substrate-binding site of cortisol-synthesizing CYP11B1 limits multiple hydroxylations and hinders aldosterone synthesis” (Current Research in Structural Biology, 2021)",
  "key": {"human CYP11B1 wild type [1]": {"biological_target": "T1, human CYP11B1 wild type (Homo sapiens, UniProt P15538)", "T1 sequence (P15538 28-503 limits assumed)": "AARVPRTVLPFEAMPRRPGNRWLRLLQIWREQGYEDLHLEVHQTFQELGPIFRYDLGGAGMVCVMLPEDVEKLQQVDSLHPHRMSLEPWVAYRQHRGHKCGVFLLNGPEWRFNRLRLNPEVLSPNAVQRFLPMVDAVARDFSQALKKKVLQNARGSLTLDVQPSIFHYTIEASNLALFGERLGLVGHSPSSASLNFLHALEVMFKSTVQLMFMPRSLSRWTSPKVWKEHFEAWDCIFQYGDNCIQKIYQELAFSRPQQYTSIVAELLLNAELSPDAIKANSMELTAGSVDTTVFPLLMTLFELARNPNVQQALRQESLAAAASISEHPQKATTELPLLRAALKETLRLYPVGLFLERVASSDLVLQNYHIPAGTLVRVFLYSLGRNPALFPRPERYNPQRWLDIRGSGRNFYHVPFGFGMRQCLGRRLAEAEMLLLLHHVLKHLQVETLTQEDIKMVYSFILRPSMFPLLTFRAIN", "experiment": "Spectroscopic titration of ferric enzyme (difference spectra), wild type", "settings": "for Spectral shift: one column for both wild type and mutant", "procedure": "(§1) Affinities of the two enzymes for the substrates DOC or DOF and other ligands were determined by titration assays using the ferric forms.\nSpectroscopic studies were carried out at room temperature using a Jasco UV–visible spectrophotometer V-530. Purified enzymes were diluted to 1.0 ​μM for the wild type and 0.8–1.2 ​μM for the mutant with the buffer consisting of 50 ​mM potassium phosphate (pH 7.4), 150 ​mM NaCl, 20% (v/v) glycerol, and 0.05% (v/v) Tween 20. […] Dissociation constants for steroids and ligands were determined from spectral changes caused by titration with increasing concentrations of them. Data were analyzed using non-linear regression (Prism 8, GraphPad Software) to calculate Kd values. […] The dissociation constants were calculated from the apparent values by using the Kd values for DOC as the inhibitory constants. […] The steroids and ligands used for spectroscopic analyses were dissolved in dimethyl sulfoxide."}, "[2]": {"biological_target": "T2, human CYP11B1 mutant (W49R, L50N, L53N, W56R, L244N, W247N) (Homo sapiens, UniProt P15538, L244N/L50N/L53N/W247N/W49R/W56R)", "T2 sequence (P15538 28-503 W49R/L50N/L53N/W56R/L244N/W247N limits assumed)": "T1 sequence (P15538 28-503 limits assumed) with W22R, L23N, L26N, W29R, L217N, W220N", "experiment": "Steady-state kinetics in reconstituted system (adrenodoxin reductase, adrenodoxin, NADPH), LC-MS/MS, mutant", "assay_type": "biochemical", "settings": "for Production of 18-hydroxy cortisol / 18-hydroxy corticosterone (11β,18-dihydroxylation): from DOF and DOC, respectively"}, "[3]": {"biological_target": "T2, human CYP11B1 mutant (W49R, L50N, L53N, W56R, L244N, W247N)", "experiment": "Spectroscopic titration of ferric enzyme (difference spectra), mutant", "settings": "direct titration of ferric form, mean ± SE, n=3", "procedure": "as §1\nTwo forms, a wild type and a mutant, of recombinant human CYP11B1 were expressed as 486-amino acid residue polypeptide (Fig. S2).\nSpectroscopic studies were carried out at room temperature using a Jasco UV–visible spectrophotometer V-530. Purified enzymes were diluted to 1.0 ​μM for the wild type and 0.8–1.2 ​μM for the mutant with the buffer consisting of 50 ​mM potassium phosphate (pH 7.4), 150 ​mM NaCl, 20% (v/v) glycerol, and 0.05% (v/v) Tween 20. Substrate DOC (Sigma) at 400 ​μM, sodium dithionite, and CO were added sequentially, and absolute spectra were recorded after each step. […] The data obtained with 5 ​mM Cymal-5 (Anatrace) in place of the substrate were also included in Fig. S4. Dissociation constants for steroids and ligands were determined from spectral changes caused by titration with increasing concentrations of them. Data were analyzed using non-linear regression (Prism 8, GraphPad Software) to calculate Kd values. […] The dissociation constants were calculated from the apparent values by using the Kd values for DOC as the inhibitory constants. […] The steroids and ligands used for spectroscopic analyses were dissolved in dimethyl sulfoxide."}, "human CYP11B1 wild type [4]": {"biological_target": "T1, human CYP11B1 wild type", "experiment": "Steady-state kinetics in reconstituted system (adrenodoxin reductase, adrenodoxin, NADPH), LC-MS/MS, wild type", "assay_type": "biochemical"}, "[5]": {"tested_on": "CYP11B1 S288G / CYP11B2 R181W/V386A", "design": "method as in ref [2, 3] (a number printed in a supplementary file, which may have a reference list of its own: not looked up in the article's list)", "settings": "group (iii); steroids produced from DOC, estimated against wild type controls; ref [2, 3]; cited from earlier work"}, "CYP11B2 Wild type": {"tested_on": "CYP11B2 Wild type", "design": "method as in ref [1] (a number printed in a supplementary file, which may have a reference list of its own: not looked up in the article's list)", "settings": "calculated from kcat values with substrate DOC, ref [1]; cited from earlier work"}, "[6]": {"tested_on": "CYP11B1 Wild type / CYP11B2 G288S", "design": "method as in ref [2, 3] (a number printed in a supplementary file, which may have a reference list of its own: not looked up in the article's list)", "settings": "group (ii); steroids produced from DOC, estimated against wild type controls; ref [2, 3]; cited from earlier work"}, "[7]": {"tested_on": "CYP11B1 S288G/V320A / CYP11B2 Wild type", "design": "method as in ref [2, 3] (a number printed in a supplementary file, which may have a reference list of its own: not looked up in the article's list)", "settings": "group (iv); steroids produced from DOC, estimated against wild type controls; ref [2, 3]; cited from earlier work"}, "[8]": {"settings": "CYP11B1 mutant, calculated from kcat values with substrate DOC"}, "[9]": {"settings": "CYP11B1 wild type (this study), calculated from kcat values with substrate DOC"}},
  "note": "Where a chain is given by its changes, count along the chain named. Several values for one entry are separate records, joined by “and”; a condition that tells them apart may be missing. Equal entries are not always repeated. Where two headings read alike, the source gives them in different places.",
  "data": [
    {"smiles": "C[C@]12CCC(=O)C=C1CC[C@@H]1[C@@H]2CC[C@@]2(C)[C@H]1CC[C@]2(O)C(=O)CO", "note": "[DOF, 11-deoxycortisol]", "values": [
      {"measurement": "Kd", "setting": "human CYP11B1 wild type [1]", "value": 21.2, "unit": "µM"},
      {"measurement": "Spectral shift", "setting": "human CYP11B1 wild type [1]", "value": "Type I"},
      {"measurement": "kcat, 11β-hydroxylation", "setting": "[2]; Mutant, DOF to cortisol, DOC to corticosterone", "value": 1.51, "unit": "s⁻¹"},
      {"measurement": "Production of 18-hydroxy cortisol / 18-hydroxy corticosterone (11β,18-dihydroxylation)", "setting": "[2]; Mutant", "value": "did not produce"},
      {"measurement": "kcat, 11β,18-diOHase", "setting": "[2]; Mutant, product 18OH-F (from DOF) or 18OH-B (from DOC)", "value": 0, "unit": "s⁻¹"},
      {"measurement": "Kd", "setting": "[3]", "value": "3.3 µM and 3.31 µM"},
      {"measurement": "kcat, 11β-hydroxylation", "setting": "human CYP11B1 wild type [4]; Wild type, DOF to cortisol, DOC to corticosterone", "value": 2.157, "unit": "s⁻¹"}
    ]},
    {"smiles": "C[C@]12CC[C@H]3[C@@H](CCC4=CC(=O)CC[C@@]43C)[C@@H]1CC[C@@H]2C(=O)CO", "note": "[DOC, 11-deoxycorticosterone]", "values": [
      {"measurement": "Kd", "setting": "human CYP11B1 wild type [1]", "value": 15.1, "unit": "µM"},
      {"measurement": "Spectral shift", "setting": "human CYP11B1 wild type [1]", "value": "Type I"},
      {"measurement": "kcat, 11β,18-diOHase", "setting": "[2]", "value": 0, "unit": "s⁻¹"},
      {"measurement": "kcat, 11β,18-diOHase,18-oxidase", "setting": "[2]", "value": 0, "unit": "s⁻¹"},
      {"measurement": "kcat, 11β-hydroxylation", "setting": "[2]", "value": 2.212, "unit": "s⁻¹"},
      {"measurement": "Relative activity (molar product ratio), 11b,18-diOHase", "setting": "[2]; [8]", "value": 0, "unit": "%"},
      {"measurement": "Relative activity (molar product ratio), 11b,18-diOHase,18-oxidase", "setting": "[2]; [8]", "value": 0, "unit": "%"},
      {"measurement": "Relative activity (molar product ratio), 11b-OHase", "setting": "[2]; [8]", "value": 95.8, "unit": "%"},
      {"measurement": "Relative activity (molar product ratio), 18-OHase", "setting": "[2]; [8]", "value": 4.2, "unit": "%"},
      {"measurement": "Production of aldosterone", "setting": "[2]; Mutant, from DOC", "value": "not produced"},
      {"measurement": "Production of 18-hydroxy cortisol / 18-hydroxy corticosterone (11β,18-dihydroxylation)", "setting": "[2]; Mutant", "value": "did not produce"},
      {"measurement": "Kd", "setting": "[3]", "value": "3.8 µM and 3.81 µM"},
      {"measurement": "Activity class, 11b,18-diOHase", "setting": "[5]", "value": "++ (Percentages 0, >0 and ≤1, >1 and ≤10, and >10 are indicated by (-), (+), (++), and (+++), respectively)"},
      {"measurement": "Activity class, 11b,18-diOHase,18-oxidase", "setting": "[5]", "value": "- (Percentages 0, >0 and ≤1, >1 and ≤10, and >10 are indicated by (-), (+), (++), and (+++), respectively)"},
      {"measurement": "Activity class, 11b-OHase", "setting": "[5]", "value": "+++ (Percentages 0, >0 and ≤1, >1 and ≤10, and >10 are indicated by (-), (+), (++), and (+++), respectively)"},
      {"measurement": "Relative activity (molar product ratio), 11b,18-diOHase", "setting": "CYP11B2 Wild type", "value": 2.7, "unit": "%"},
      {"measurement": "Relative activity (molar product ratio), 11b,18-diOHase,18-oxidase", "setting": "CYP11B2 Wild type", "value": 0.5, "unit": "%"},
      {"measurement": "Relative activity (molar product ratio), 11b-OHase", "setting": "CYP11B2 Wild type", "value": 92.6, "unit": "%"},
      {"measurement": "Relative activity (molar product ratio), 18-OHase", "setting": "CYP11B2 Wild type", "value": 4.2, "unit": "%"},
      {"measurement": "Activity class, 11b,18-diOHase", "setting": "[6]", "value": "+ (Percentages 0, >0 and ≤1, >1 and ≤10, and >10 are indicated by (-), (+), (++), and (+++), respectively)"},
      {"measurement": "Activity class, 11b,18-diOHase,18-oxidase", "setting": "[6]", "value": "- (Percentages 0, >0 and ≤1, >1 and ≤10, and >10 are indicated by (-), (+), (++), and (+++), respectively)"},
      {"measurement": "Activity class, 11b-OHase", "setting": "[6]", "value": "+++ (Percentages 0, >0 and ≤1, >1 and ≤10, and >10 are indicated by (-), (+), (++), and (+++), respectively)"},
      {"measurement": "kcat, 11β,18-diOHase,18-oxidase", "setting": "human CYP11B1 wild type [4]", "value": 0, "unit": "s⁻¹"},
      {"measurement": "kcat, 11β,18-dihydroxylation", "setting": "human CYP11B1 wild type [4]", "value": 0.0108, "unit": "s⁻¹"},
      {"measurement": "kcat, 11β-hydroxylation", "setting": "human CYP11B1 wild type [4]", "value": 2.683, "unit": "s⁻¹"},
      {"measurement": "kcat, 18-hydroxylation", "setting": "human CYP11B1 wild type [4]", "value": 0.132, "unit": "s⁻¹"},
      {"measurement": "Relative activity (molar product ratio), 11b,18-diOHase", "setting": "human CYP11B1 wild type [4]; [9]", "value": 0.4, "unit": "%"},
      {"measurement": "Relative activity (molar product ratio), 11b,18-diOHase,18-oxidase", "setting": "human CYP11B1 wild type [4]; [9]", "value": 0, "unit": "%"},
      {"measurement": "Relative activity (molar product ratio), 11b-OHase", "setting": "human CYP11B1 wild type [4]; [9]", "value": 94.9, "unit": "%"},
      {"measurement": "Relative activity (molar product ratio), 18-OHase", "setting": "human CYP11B1 wild type [4]; [9]", "value": 4.7, "unit": "%"},
      {"measurement": "Production of aldosterone", "setting": "human CYP11B1 wild type [4]; Wild type, from DOC", "value": "not produced"},
      {"measurement": "Activity class, 11b,18-diOHase", "setting": "[7]", "value": "++ (Percentages 0, >0 and ≤1, >1 and ≤10, and >10 are indicated by (-), (+), (++), and (+++), respectively)"},
      {"measurement": "Activity class, 11b,18-diOHase,18-oxidase", "setting": "[7]", "value": "+ (Percentages 0, >0 and ≤1, >1 and ≤10, and >10 are indicated by (-), (+), (++), and (+++), respectively)"},
      {"measurement": "Activity class, 11b-OHase", "setting": "[7]", "value": "+++ (Percentages 0, >0 and ≤1, >1 and ≤10, and >10 are indicated by (-), (+), (++), and (+++), respectively)"}
    ]}
  ]
}
